Test results: publication PMC6704710, “Preclinical evaluation of 3D185, a novel potent inhibitor of FGFR1/2/3 and CSF-1R, in FGFR-dependent and macrophage-dominant cancer models” (Journal of Experimental & Clinical Cancer Research : CR, 2019)

Assays:
Assay in all cases: Eurofins kinase panel
Assay type in all cases: biochemical
Details in all cases: read-out: Inhibition rate (%)
PDGFRβ(h) = biological target: T1, PDGFRβ(h) (Homo sapiens, UniProt P09619)
T1 construct: purchased Eurofins (KinaseProfiler)

PKA(h) = biological target: T2, PKA(h) (Homo sapiens, UniProt P17612)
T2 construct: purchased Eurofins (KinaseProfiler)

PKCβII(h) = biological target: T3, PKCβII(h) (Homo sapiens, UniProt P05771)
T3 construct: purchased Eurofins (KinaseProfiler)

PKD2(h) = biological target: T4, PKD2(h) (Homo sapiens, UniProt Q9BZL6)
T4 construct: purchased Eurofins (KinaseProfiler)
T4 sequence (Q9BZL6 1-878): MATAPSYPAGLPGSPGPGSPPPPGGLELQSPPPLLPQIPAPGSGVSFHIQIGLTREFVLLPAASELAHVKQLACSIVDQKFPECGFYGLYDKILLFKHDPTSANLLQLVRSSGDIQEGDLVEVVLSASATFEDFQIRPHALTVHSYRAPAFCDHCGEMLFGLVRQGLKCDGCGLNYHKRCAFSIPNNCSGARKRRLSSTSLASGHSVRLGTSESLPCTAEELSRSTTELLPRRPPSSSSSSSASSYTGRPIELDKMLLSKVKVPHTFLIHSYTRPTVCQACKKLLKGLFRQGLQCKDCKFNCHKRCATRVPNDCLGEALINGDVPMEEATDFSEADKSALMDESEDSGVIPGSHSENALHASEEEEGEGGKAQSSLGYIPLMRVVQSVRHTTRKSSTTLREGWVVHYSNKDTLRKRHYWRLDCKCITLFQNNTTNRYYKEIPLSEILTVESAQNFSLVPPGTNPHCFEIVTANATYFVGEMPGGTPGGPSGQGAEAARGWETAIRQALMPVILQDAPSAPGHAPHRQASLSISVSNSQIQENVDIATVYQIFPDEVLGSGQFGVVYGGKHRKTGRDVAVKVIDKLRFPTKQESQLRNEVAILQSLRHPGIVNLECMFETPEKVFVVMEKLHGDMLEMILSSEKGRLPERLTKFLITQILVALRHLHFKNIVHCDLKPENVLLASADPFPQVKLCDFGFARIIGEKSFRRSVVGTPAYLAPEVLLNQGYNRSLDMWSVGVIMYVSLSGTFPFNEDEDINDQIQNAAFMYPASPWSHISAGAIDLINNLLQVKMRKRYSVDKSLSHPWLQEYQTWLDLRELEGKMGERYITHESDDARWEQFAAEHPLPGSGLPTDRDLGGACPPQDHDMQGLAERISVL

PRKG2(h) = biological target: T5, PRKG2(h) (Homo sapiens, UniProt Q13237)
T5 construct: purchased Eurofins (KinaseProfiler)
T5 sequence (Q13237 1-762): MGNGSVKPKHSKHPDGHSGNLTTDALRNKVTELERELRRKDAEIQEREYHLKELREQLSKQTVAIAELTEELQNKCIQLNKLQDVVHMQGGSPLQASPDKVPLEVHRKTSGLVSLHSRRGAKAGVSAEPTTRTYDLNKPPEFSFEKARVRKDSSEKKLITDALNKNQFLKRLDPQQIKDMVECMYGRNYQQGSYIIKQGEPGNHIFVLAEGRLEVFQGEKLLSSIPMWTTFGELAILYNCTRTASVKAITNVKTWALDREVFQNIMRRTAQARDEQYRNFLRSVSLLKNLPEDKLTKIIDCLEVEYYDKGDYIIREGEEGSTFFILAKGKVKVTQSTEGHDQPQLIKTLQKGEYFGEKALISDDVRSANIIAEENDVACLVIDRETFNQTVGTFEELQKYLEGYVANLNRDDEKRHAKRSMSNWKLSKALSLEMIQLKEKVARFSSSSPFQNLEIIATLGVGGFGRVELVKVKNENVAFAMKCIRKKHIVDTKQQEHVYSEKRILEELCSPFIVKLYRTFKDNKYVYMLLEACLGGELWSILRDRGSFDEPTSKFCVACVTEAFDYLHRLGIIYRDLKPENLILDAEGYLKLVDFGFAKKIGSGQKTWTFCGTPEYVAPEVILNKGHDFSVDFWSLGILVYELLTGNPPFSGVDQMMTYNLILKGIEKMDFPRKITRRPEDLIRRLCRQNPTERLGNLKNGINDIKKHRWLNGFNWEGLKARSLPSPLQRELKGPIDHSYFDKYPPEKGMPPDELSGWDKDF

T3 sequence (P05771 1-673 isoform P05771-2): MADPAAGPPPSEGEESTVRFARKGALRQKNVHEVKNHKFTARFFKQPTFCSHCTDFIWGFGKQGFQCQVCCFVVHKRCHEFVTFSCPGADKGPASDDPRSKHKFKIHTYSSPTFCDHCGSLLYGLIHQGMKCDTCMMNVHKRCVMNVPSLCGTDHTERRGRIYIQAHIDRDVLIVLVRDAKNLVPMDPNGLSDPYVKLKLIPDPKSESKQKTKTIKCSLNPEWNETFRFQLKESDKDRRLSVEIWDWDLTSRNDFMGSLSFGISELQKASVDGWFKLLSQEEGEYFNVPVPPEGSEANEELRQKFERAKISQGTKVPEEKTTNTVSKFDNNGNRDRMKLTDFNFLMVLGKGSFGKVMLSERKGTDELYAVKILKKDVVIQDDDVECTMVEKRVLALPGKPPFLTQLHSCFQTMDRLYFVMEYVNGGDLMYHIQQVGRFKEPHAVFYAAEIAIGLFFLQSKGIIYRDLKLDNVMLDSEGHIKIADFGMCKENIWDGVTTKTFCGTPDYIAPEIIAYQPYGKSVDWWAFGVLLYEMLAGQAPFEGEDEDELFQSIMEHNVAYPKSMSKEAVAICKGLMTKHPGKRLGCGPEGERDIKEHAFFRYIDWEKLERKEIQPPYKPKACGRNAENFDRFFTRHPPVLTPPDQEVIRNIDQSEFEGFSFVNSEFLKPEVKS
T1 sequence (P09619 33-1106): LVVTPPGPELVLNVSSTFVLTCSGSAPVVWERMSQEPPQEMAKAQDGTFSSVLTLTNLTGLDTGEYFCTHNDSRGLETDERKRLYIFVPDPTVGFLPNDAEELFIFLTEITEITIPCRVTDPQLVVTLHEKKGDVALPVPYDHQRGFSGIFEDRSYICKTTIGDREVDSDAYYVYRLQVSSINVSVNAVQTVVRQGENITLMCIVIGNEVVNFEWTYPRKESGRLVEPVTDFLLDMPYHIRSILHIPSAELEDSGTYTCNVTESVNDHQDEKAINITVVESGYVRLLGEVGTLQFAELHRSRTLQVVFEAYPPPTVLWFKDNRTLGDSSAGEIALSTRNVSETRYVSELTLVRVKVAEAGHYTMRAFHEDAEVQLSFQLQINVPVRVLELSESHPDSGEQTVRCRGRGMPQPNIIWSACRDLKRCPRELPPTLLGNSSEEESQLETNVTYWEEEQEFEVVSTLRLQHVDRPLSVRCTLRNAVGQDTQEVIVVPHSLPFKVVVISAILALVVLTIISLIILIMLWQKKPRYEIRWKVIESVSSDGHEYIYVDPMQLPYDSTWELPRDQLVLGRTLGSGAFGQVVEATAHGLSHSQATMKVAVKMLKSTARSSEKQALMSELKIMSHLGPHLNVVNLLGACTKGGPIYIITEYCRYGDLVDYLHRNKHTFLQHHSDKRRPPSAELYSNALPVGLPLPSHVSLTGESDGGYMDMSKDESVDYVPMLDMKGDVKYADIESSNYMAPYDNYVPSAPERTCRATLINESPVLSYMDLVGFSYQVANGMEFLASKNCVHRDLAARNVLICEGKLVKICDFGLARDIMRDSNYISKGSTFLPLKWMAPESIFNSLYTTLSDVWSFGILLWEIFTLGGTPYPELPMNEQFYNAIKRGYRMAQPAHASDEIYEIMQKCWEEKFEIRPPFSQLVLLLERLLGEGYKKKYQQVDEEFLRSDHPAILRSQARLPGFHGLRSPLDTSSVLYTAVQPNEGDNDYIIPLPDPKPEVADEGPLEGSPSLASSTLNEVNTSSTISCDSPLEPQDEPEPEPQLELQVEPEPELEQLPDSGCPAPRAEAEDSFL

COc1cc(OC)c(Cl)c(-c2ccc3c(NC(=O)c4ccc(N5CCNC(C)(C)C5)cc4)n[nH]c3n2)c1Cl [3D185]
inhibition at 0.01 µM (PDGFRβ(h); 10 nM): 1% | inhibition at 0.1 µM (PDGFRβ(h); 100 nM): -1% | inhibition at 1 µM (PDGFRβ(h); 1000 nM): 17% | inhibition at 0.01 µM (PKA(h); 10 nM): 5% | inhibition at 0.1 µM (PKA(h); 100 nM): -8% | inhibition at 1 µM (PKA(h); 1000 nM): 5% | inhibition at 0.01 µM (PKCβII(h); 10 nM): -12% | inhibition at 0.1 µM (PKCβII(h); 100 nM): -1% | inhibition at 1 µM (PKCβII(h); 1000 nM): -8% | inhibition at 0.01 µM (PKD2(h); 10 nM): 7% | inhibition at 0.1 µM (PKD2(h); 100 nM): -4% | inhibition at 1 µM (PKD2(h); 1000 nM): 3% | inhibition at 0.01 µM (PRKG2(h); 10 nM): 1% | inhibition at 0.1 µM (PRKG2(h); 100 nM): 3% | inhibition at 1 µM (PRKG2(h); 1000 nM): 3%
